Assay results as given in patent US9796730B2, “Halogenated benzoxazines and their use” (priority 2012, dated 2017).

Key:
Aβ plaques [1] = assay: Detection of Aβ plaques by means of optical imaging (OI) in the mouse model; format: in vivo, transgenic APPPS1 mice and non-transgenic control mice
Method: Detection of Aβ Plaques by Means of Optical Imaging (OI) in the Mouse Model
The compound was formulated in physiological saline solution (0.9% NaCl) in a concentration of 0.05 mg/ml and intravenously injected into the mice. In the following the mice were examined by means of OI (Aequoria Hamamatsu Optical Imaging System), the signal was detected at 650 nm.
It is clear for the skilled person that this labeling can—depending on the kind of labeling—be realized by any method, such as OI, PET (e.g. with ^76Br, ^75Br or ^18F labeled compounds) or MRT (e.g. with ^19F labeled compounds).
The signal strength was quantified as a relative fluorescence signal, whereby 30 min after the injection was chosen as the reference point in time. The signal strength was calculated by percentage after the subtraction of the auto fluorescence (resulting in relative intensity values, Irel) and then the percentage difference between the transgenic and control mice—in the following referred to as specific binding (Bsp)—was calculated and plotted against the age of the transgenic mice (see FIG. 3). It turned out that there is a significant correlation between the age and the development of the Alzheimer's disease and the signal strength, where it was especially noted that the compound according to the invention has no saturation or ceiling effects in a way that the signal strength is not increasing at a specific concentration of Aβ plaques. To the contrary, at the age of 21 months for the transgenic mice a particularly strong signal has been measured.

[2] = Storage stability of the isolated title compound; format: physicochemical; conditions: within 12 hours at −25° C.
Method: The title compound is instable and decomposes within 12 hours to 50% at −25° C. For this reason the title compound is further converted directly after the isolation.

Aβ plaques [3] = assay: Detection of Aβ plaques by means of MRT and optical fluorescence measurements in the mice model; format: in vivo, transgenic APP23 mice and non-transgenic control mice; conditions: age 28 months, 2 mg/kg body weight
Text: Detection of Aβ Plaques by Means of MRT in the Mice Model
For the MRT measurements a threedimensional gradient echosequence (gre3D) which both comprises T1 as well as T2* parts, and a quantitative T2 value determination sequence (T2map) were used.
The observations made in vivo could also be confirmed ex vivo after a preparation of the brains.

## CCN1CCOc2cc3c(cc21)Oc1cc2c(cc1=N3)OCC[N+]=2CC[18F] [Example 3, [F-18]-8-Ethyl-4-(2-Fluoroethyl)-3,8,9,10-tetrahydro-2H-bis([1,4]-oxazino)[2,3-b:3′,2′-i]phenoxazin-4-ium chloride]
Aβ plaques [1]; in vivo, OI
  binding to Aβ plaques (summary of OI examinations): selectively binds to Aβ plaques
Aβ plaques [1]; non-transgenic control mice, 0.1 mg/kg body weight i.v., signal at 650 nm, FIG. 1
  accumulation in control mice (OI signal): no accumulation could be detected
Aβ plaques [1]; transgenic APPPS1 mice, 0.1 mg/kg body weight i.v., signal at 650 nm, FIG. 1 (age 12 months, 120 min after injection)
  accumulation in transgenic mice (OI signal): specifically accumulates in transgenic mice
Aβ plaques [1]; transgenic APPPS1 mice, 0.1 mg/kg i.v., OI
  enrichment as a function of the age of the transgenic mice: increases with the age of the transgenic mice
Aβ plaques [1]; transgenic APPPS1 mice, age 2 months, 0.1 mg/kg i.v., OI, FIG. 2
  enrichment in transgenic mice of an age of 2 months: no enrichment can be detected
Aβ plaques [1]; transgenic APPPS1 mice, age 12 months, 0.1 mg/kg i.v., OI, FIG. 2
  enrichment in transgenic mice at the age of 12 months: a significant enrichment can be seen

## Oc1ccc2c(c1)N(CCBr)CCO2 [Example 13A, 4-(2-Bromoethyl)-3,4-dihydro-2H-benzo[b][1,4]oxazin-6-ol]
[2]
  decomposition on storage: 50%

## CCN1CCOc2cc3c(cc21)Oc1cc2c(cc1=N3)OCC[N+]=2CC[19F] [Example 1, 8-Ethyl-4-(2-fluoroethyl)-3,8,9,10-tetrahydro-2H-bis([1,4]oxazino)[2,3-b:3′,2′-i]phenoxazin-4-ium chloride]
Aβ plaques [3]; non-transgenic control mice
  enrichment in control mice (MRT and fluorescence): neither for the MRT measurements nor the fluorescence measurements a specific enrichment
Aβ plaques [3]; transgenic APP23 mice, measurement period 90 minutes
  enrichment in transgenic mice (MRT and fluorescence): a specific enrichment in the transgenic mice could be detected
